Measurements as given in patent publication US6417220B2, “Mitochondrial membrane stabilizer” (Daiichi Pharmaceutical Co., Ltd., priority 1996, dated 2002).

Experiments:
[1] = system: NG108-15 cells; assay: Determination of the mitochondrial membrane potential (Rhodamine 123 fluorescence); type: cell-based
[2] = system: NG108-15 cells; assay: Determination of the intracellular Ca2+ concentration (fura2-AM fluorescence ratio); type: cell-based
From the text: The present invention will be explained more specifically by referring to the following examples. However, the scope of the present invention is not limited to these examples. The test procedure in the examples was according to the method of Hare et al. (Hare, M. F., et. al., JPET, 266, pp.1626-1635, 1993) unless otherwise indicated. In the examples, “Nefiracetam” means 2-oxo-1-pyrrolidinylacetic acid 2,6-dimethylanilide, and “Ro5-4864” means the mitochondrias benzodiazepine receptor agonist, (7-chloro-5-(4-chlorophenyl)-1,3-dihydro-1-methyl-2H-1,4-benzodiazepin-2-one: TIPS, December, pp. 506-511, 1986).
Changes in the intracellular Ca^2+ concentration caused by Ro5-4864 was studied. Cultured cells (NG108-15 cells: nerve cell x neuroglia cell hybrid) were cultured in DMEM culture medium, and further cultured in Flexiperm Disc (Heraeus Biotechnology) provided with a cover glass and used in the following described below. The cultured NG 108-15 cells were added with Ro5-4864 at final concentration of […]. A fluorescent remedicament, fura2-AM (1-(6-amino-2-(5-carboxy-2-oxazoly-5-benzofuranyloxy)-2-(2-amino-5-methylphenoxy)-ethane-N,N,N′,N′-teraacetic acid, pentaacetoxymethyl ester, Dojindo Laboratories) was dissolved in DMSO (Dimethylsulfoxide, Nakarai Chemical) to prepare a 1 mM solution, and this solution was diluted 200 times with HBS (Herpes-saline solution, composition: NaCl; 130 mM; KCl: 5.4 mM; CaCl2: 1.8 mM; MgSO4: 0.8 mM; D-glucose: 20 mM; Na^+-HEPES; 20 mM, pH 7.3) to prepare a fluorescent reagent solution (final concentration of fra2-AM: 5 μM).
For the determination of intracellular Ca^2+ concentrations, the culture medium was removed from the Petri dish where the NG108-15 cells were cultured, and the dish was washed twice with HBS. The cultured cells were added with the 5 μM fura2-AM solution prepared above, put in a carbon dioxide gas incubator for 30 minutes, and then washed with HBS five times to remove the added fura2-AM solution. Finally, 1 ml of HBS was added to the Flexiperm, and the intracellular Ca^2+ concentration was measured by ARGUS-50/CA (Hamamatsu Photonics). According to this measurement, the fluorescence of Ca^2+-bound type fura-2 emitted at an excitation wavelength of 340 nm and the fluorescence of Ca^2+-free type fura-2 emitted at an excitation wavelength of 380 nm were measured as a pair at a constant interval for the fura-2 loaded cultured cells, and their relative ratio (ratio of fluorescence intensity) was used to analyze the intracellular Ca^2+ dynamics (concentration). An increase in the 340 nm excited fluorescence due to the binding of intracellular calcium ions to the fura2-AM, and a decrease in the 380 nm excited fluorescence were recorded by imaging and the ratio of fluorescence intensity between the fluorescence images was obtained.

[3] = male mouse, p.o.; cited from earlier work

Compound: CN(C(=O)Cn1c(=O)n2c(Br)c(-c3cccc(Cl)c3)nc2c2ccccc21)c1ccccc1 [NCS-1044-90, 2-(3-Chlorophenyl)-3-bromo-6-(N-methyl-N-phenylacetamido)-5-oxo-5,6-dihydroimidazo[1,2-c]quinazoline]
- change in intracellular mitochondrial membrane potential ([1]; NCS-1044-90 10 μM alone, FIG. 10): No change
- change in intracellular mitochondrial membrane potential on addition of Ro5-4864 ([1]; Ro5-4864 50 μM added to cells treated with NCS-1044-90 10 μM, FIG. 10): only a very small elevation
- change in intracellular mitochondrial membrane potential on further addition of Ro5-4864 ([1]; further treatment with Ro5-4864 100 μM, cells treated with NCS-1044-90 10 μM, FIG. 10): slight and gentle elevation
- change in intracellular Ca2+ concentration on addition of Ro5-4864 ([2]; Ro5-4864 100 μM applied to cells treated beforehand with NCS-1044-90 10 μM, FIG. 9): only a very small elevation

Compound: Cc1cccc(C)c1NC(=O)CN1CCCC1=O [Nefiracetam, 2-oxo-1-pyrrolidinylacetic acid 2,6-dimethylanilide]
- acute toxicity [3]: 2,005 mg/kg
- change in mitochondrial membrane potential ([1]; Nefiracetam 50 μM alone, FIG. 6): no change
- change in mitochondrial membrane potential on addition of Ro5-4864 ([1]; Ro5-4864 25 μM in the presence of Nefiracetam 50 μM, FIG. 6): almost no change
- depolarizing effect of Ro5-4864 on mitochondrial membranes ([1]; Ro5-4864 50 μM in the presence of Nefiracetam, FIG. 6): weak
- change in intracellular Ca2+ concentration ([2]; Nefiracetam 50 μM alone, after washing, FIG. 5): no change
- change in intracellular Ca2+ concentration on addition of Ro5-4864 ([2]; Ro5-4864 25 μM in the presence of Nefiracetam 50 μM, FIG. 5): almost no change

Compound: CN1C(=O)CN=C(c2ccc(Cl)cc2)c2cc(Cl)ccc21 [Ro5-4864, 7-chloro-5-(4-chlorophenyl)-1,3-dihydro-1-methyl-2H-1,4-benzodiazepin-2-one]
- change in mitochondrial membrane potential ([1]; Ro5-4864 50 μM alone, FIG. 2): remarkably decreased
- change in mitochondrial membrane potential ([1]; Ro5-4864 50 μM applied after caffeine and bradykinin, FIG. 4): remarkable decrease
- change in intracellular Ca2+ concentration ([2]; Ro5-4864 25 μM alone, FIG. 5, first peak): elevation
- change in intracellular Ca2+ concentration ([2]; Ro5-4864 50 μM alone, FIG. 7, first peak): elevation
- change in intracellular Ca2+ concentration ([2]; Ro5-4864 50 μM applied after bradykinin and caffeine treatment (endoplasmic reticulum Ca2+ depleted), FIG. 3): markedly elevated
- change in intracellular Ca2+ concentration ([2]; Ro5-4864 alone, FIG. 1): sharply increases

Compound: Cn1c(=O)c2c(ncn2C)n(C)c1=O [caffeine, reference compound]
- change in mitochondrial membrane potential ([1]; caffeine 10 μM and bradykinin 1 μM applied, FIG. 4): no alteration
